Laboratory results: PubChem BioAssay AID1919004 (Molecular Pharmacology Branch, DTP, NCI, 2023)
Where “and” joins values, the source holds several entries; their conditions need not be identical. Equal values may be shown once.

Tested on: 883617-216-R-J1-PDC complex spheroids, growth, % test/control
Test: Anticancer human tumor 883617-216-R-J1-PDC patient-derived bladder carcinoma cell line growth inhibition [AhR]
Settings: for viability, T/C: stronger effect = lower value; active = viability on the fitted dose curve at most 10% of control; inactive = the rest
Method in brief: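 Spheroids combined tumor cells with HUVEC endothelial cells and human MSCs as stroma. AhR antagonists were paired with standard or investigational drugs, each dosed in half-log steps down from near clinical Cmax, or from 10 microM where Cmax was unknown.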

[1] = curve of first compound, second compound 0.1 µM
[2] = curve of first compound, second compound 0.316 µM
[3] = curve of first compound, second compound 1 µM
[4] = curve of first compound, second compound 3.16 µM
[5] = curve of first compound, second compound 10 µM
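Also: exposure lasted 7 days after dosing on day 3 of spheroid growth.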

Nc1ncn(C2CC(O)C(CO)S2)c(=O)n1 (centres undefined) + Cc1ccccc1N=Nc1ccc(NC(=O)c2ccnn2C)c(C)c1
inactive: viability, T/C (second compound 0.1 µM, first compound 0.000949 µM) 98.4% | viability, T/C (second compound 0.1 µM, first compound 0.003 µM) 90.2% | viability, T/C (second compound 0.1 µM, first compound 0.00949 µM) 88.8% | viability, T/C (second compound 0.1 µM, first compound 0.03 µM) 88.7% | viability, T/C (second compound 0.1 µM, first compound 0.0949 µM) 87.3% | viability, T/C (second compound 0.1 µM, first compound 0.3 µM) 75.8% | viability, T/C (second compound 0.316 µM, first compound 0.000949 µM) 83.9% | viability, T/C (second compound 0.316 µM, first compound 0.003 µM) 93.8% | viability, T/C (second compound 0.316 µM, first compound 0.00949 µM) 83.5% | viability, T/C (second compound 0.316 µM, first compound 0.03 µM) 81.2% | viability, T/C (second compound 0.316 µM, first compound 0.0949 µM) 84.6% | viability, T/C (second compound 0.316 µM, first compound 0.3 µM) 75.5% | viability, T/C (second compound 1 µM, first compound 0.000949 µM) 84.3% | viability, T/C (second compound 1 µM, first compound 0.003 µM) 84.2% | viability, T/C (second compound 1 µM, first compound 0.00949 µM) 99.2% | viability, T/C (second compound 1 µM, first compound 0.03 µM) 80.3% | viability, T/C (second compound 1 µM, first compound 0.0949 µM) 76.1% | viability, T/C (second compound 1 µM, first compound 0.3 µM) 80.7% | viability, T/C (second compound 3.16 µM, first compound 0.000949 µM) 81.7% | viability, T/C (second compound 3.16 µM, first compound 0.003 µM) 87.9% | viability, T/C (second compound 3.16 µM, first compound 0.00949 µM) 85% | viability, T/C (second compound 3.16 µM, first compound 0.03 µM) 73.3% | viability, T/C (second compound 3.16 µM, first compound 0.0949 µM) 86.4% | viability, T/C (second compound 3.16 µM, first compound 0.3 µM) 78.7% | viability, T/C (second compound 10 µM, first compound 0.000949 µM) 73.8% | viability, T/C (second compound 10 µM, first compound 0.003 µM) 68.5% | viability, T/C (second compound 10 µM, first compound 0.00949 µM) 76.3% | viability, T/C (second compound 10 µM, first compound 0.03 µM) 79.2% | viability, T/C (second compound 10 µM, first compound 0.0949 µM) 76.9% | viability, T/C (second compound 10 µM, first compound 0.3 µM) 83.4%
> 300 nM: IC50 [1] | IC50 [2] | IC50 [3] | IC50 [4] | IC50 [5]

CCN(c1cc(-c2ccc(CN3CCOCC3)cc2)cc(C(=O)NCc2c(C)cc(C)[nH]c2=O)c1C)C1CCOCC1
inactive: viability, T/C (compound 0.00949 µM) 95.9% and 98.2% and 103% | viability, T/C (compound 0.03 µM) 89.1% and 111% and 60.8% | viability, T/C (compound 0.0949 µM) 106% and 89.9% and 90.6% | viability, T/C (compound 0.3 µM) 105% and 95.1% and 99.1% | viability, T/C (compound 0.949 µM) 104% and 115% and 88.1% | viability, T/C (compound 3 µM) 95.5% and 93.6% and 130%
> 3000 nM: IC50 (curve of compound)

CC1COCCN1c1cc(C2(S(C)(=N)=O)CC2)nc(-c2ccnc3[nH]ccc23)n1 (centres undefined)
inactive: viability, T/C (compound 0.0316 µM) 99.7% and 109% and 114% | viability, T/C (compound 0.1 µM) 97.4% and 97.5% and 101% | viability, T/C (compound 0.316 µM) 106% and 101% and 71.2% | viability, T/C (compound 1 µM) 88.5% and 99.6% and 63.6% | viability, T/C (compound 3.16 µM) 76% and 80.4% and 89.1% | viability, T/C (compound 10 µM) 48.9% and 56.1% and 102%
9600 nM and > 10000 nM: IC50 (curve of compound)

COc1ccc([C@@H](O)c2cc(-c3ncnc4cc(N5CCOCC5)ccc34)c(F)cc2Cl)nn1 + Cc1cncc(-c2nc(NCCc3c[nH]c4ccccc34)c3ncn(C(C)C)c3n2)c1
4070 nM: IC50 [3]
< 31.6 nM: IC50 [5]
2650 nM: IC50 [1]
3530 nM: IC50 [4]
inactive: viability, T/C (second compound 0.1 µM, first compound 0.0316 µM) 89.8% | viability, T/C (second compound 0.1 µM, first compound 0.1 µM) 82.6% | viability, T/C (second compound 0.1 µM, first compound 0.316 µM) 78.2% | viability, T/C (second compound 0.1 µM, first compound 1 µM) 67.5% | viability, T/C (second compound 0.1 µM, first compound 3.16 µM) 45.5% | viability, T/C (second compound 0.1 µM, first compound 10 µM) 34.1% | viability, T/C (second compound 0.316 µM, first compound 0.0316 µM) 93.6% | viability, T/C (second compound 0.316 µM, first compound 0.1 µM) 103% | viability, T/C (second compound 0.316 µM, first compound 0.316 µM) 87.9% | viability, T/C (second compound 0.316 µM, first compound 1 µM) 67.1% | viability, T/C (second compound 0.316 µM, first compound 3.16 µM) 45.6% | viability, T/C (second compound 0.316 µM, first compound 10 µM) 35.3% | viability, T/C (second compound 1 µM, first compound 0.0316 µM) 100% | viability, T/C (second compound 1 µM, first compound 0.1 µM) 95.4% | viability, T/C (second compound 1 µM, first compound 0.316 µM) 85.9% | viability, T/C (second compound 1 µM, first compound 1 µM) 76.7% | viability, T/C (second compound 1 µM, first compound 3.16 µM) 50.7% | viability, T/C (second compound 1 µM, first compound 10 µM) 39.3% | viability, T/C (second compound 3.16 µM, first compound 0.0316 µM) 103% | viability, T/C (second compound 3.16 µM, first compound 0.1 µM) 102% | viability, T/C (second compound 3.16 µM, first compound 0.316 µM) 94.9% | viability, T/C (second compound 3.16 µM, first compound 1 µM) 79.9% | viability, T/C (second compound 3.16 µM, first compound 3.16 µM) 51.4% | viability, T/C (second compound 3.16 µM, first compound 10 µM) 33.3% | viability, T/C (second compound 10 µM, first compound 0.0316 µM) 39.6% | viability, T/C (second compound 10 µM, first compound 0.1 µM) 39.3% | viability, T/C (second compound 10 µM, first compound 0.316 µM) 38.9% | viability, T/C (second compound 10 µM, first compound 1 µM) 30.4% | viability, T/C (second compound 10 µM, first compound 3.16 µM) 19.2% | viability, T/C (second compound 10 µM, first compound 10 µM) 10.9%
2400 nM: IC50 [2]
